Where a name gives a salt, the structure may show the parent alone. Read-outs that look alike come from different tables or passages of the source.
How the values were obtained:
mutant G2019S LRRK2 = mutant G2019S LRRK2 (Homo sapiens, UniProt Q5S007, G2019S); assay: LRRK2 Assay, Format 1 (Lantha Screen), G2019S mutant
Description: All final concentrations of substrate ATP and enzyme were the same.

[1] = biological target: T1, GST-tagged truncated LRRK2 (Homo sapiens, UniProt Q5S007); assay: LRRK2 Assay, Format 1 (Lantha Screen), WT; assay type: biochemical
T1 construct: GST-tagged truncated LRRK2 from Invitrogen (Cat # PV4874); GST; purchased Invitrogen PV4874
Method: LRRK2 kinase activity was measured using Lantha Screen technology from Invitrogen. GST-tagged truncated LRRK2 from Invitrogen (Cat # PV4874) was incubated with a fluorescein-labeled peptide substrate based upon ezrin/radixin/moesin (ERM), also known as LRRKtide (Invitrogen cat # PR8976A), in the presence of a dose response of compound. Upon completion, the assay was stopped and detected with a terbium labeled anti-phospho-ERM antibody (Invitrogen, cat # PR8975A). […] Aliquots (3.5 μL) of the 100% DMSO dose response were mixed with 46.5 μL water then 1 μL of this mixture was added to the 3 μL substrate mix in the 384-well plate. The kinase reaction was started with 3 μL of a working solution of LRRK2 enzyme at a concentration of 4 μg/mL. […] The reaction was allowed to progress at room temperature for two hours and then stopped with the addition of 7 μL of detection buffer (20 mM Tris pH 7.6, 0.01% NP-40, 0.02% NaN3, 6 mM EDTA with 2 nM terbium labeled anti-phospho-ERM).

[2] = Format 1, wild-type LRRK2, geometric mean of 2-4 determinations unless footnoted (a: ≥5 determinations; b: single determination; c: determined on trifluoroacetate salt)
[3] = 100 nM LRRKtide, 50 μM ATP, 1.7 μg/mL LRRK2 enzyme, two hours at room temperature

mutant G2019S LRRK2, sequence (Q5S007 970-2527 G2019S limits assumed): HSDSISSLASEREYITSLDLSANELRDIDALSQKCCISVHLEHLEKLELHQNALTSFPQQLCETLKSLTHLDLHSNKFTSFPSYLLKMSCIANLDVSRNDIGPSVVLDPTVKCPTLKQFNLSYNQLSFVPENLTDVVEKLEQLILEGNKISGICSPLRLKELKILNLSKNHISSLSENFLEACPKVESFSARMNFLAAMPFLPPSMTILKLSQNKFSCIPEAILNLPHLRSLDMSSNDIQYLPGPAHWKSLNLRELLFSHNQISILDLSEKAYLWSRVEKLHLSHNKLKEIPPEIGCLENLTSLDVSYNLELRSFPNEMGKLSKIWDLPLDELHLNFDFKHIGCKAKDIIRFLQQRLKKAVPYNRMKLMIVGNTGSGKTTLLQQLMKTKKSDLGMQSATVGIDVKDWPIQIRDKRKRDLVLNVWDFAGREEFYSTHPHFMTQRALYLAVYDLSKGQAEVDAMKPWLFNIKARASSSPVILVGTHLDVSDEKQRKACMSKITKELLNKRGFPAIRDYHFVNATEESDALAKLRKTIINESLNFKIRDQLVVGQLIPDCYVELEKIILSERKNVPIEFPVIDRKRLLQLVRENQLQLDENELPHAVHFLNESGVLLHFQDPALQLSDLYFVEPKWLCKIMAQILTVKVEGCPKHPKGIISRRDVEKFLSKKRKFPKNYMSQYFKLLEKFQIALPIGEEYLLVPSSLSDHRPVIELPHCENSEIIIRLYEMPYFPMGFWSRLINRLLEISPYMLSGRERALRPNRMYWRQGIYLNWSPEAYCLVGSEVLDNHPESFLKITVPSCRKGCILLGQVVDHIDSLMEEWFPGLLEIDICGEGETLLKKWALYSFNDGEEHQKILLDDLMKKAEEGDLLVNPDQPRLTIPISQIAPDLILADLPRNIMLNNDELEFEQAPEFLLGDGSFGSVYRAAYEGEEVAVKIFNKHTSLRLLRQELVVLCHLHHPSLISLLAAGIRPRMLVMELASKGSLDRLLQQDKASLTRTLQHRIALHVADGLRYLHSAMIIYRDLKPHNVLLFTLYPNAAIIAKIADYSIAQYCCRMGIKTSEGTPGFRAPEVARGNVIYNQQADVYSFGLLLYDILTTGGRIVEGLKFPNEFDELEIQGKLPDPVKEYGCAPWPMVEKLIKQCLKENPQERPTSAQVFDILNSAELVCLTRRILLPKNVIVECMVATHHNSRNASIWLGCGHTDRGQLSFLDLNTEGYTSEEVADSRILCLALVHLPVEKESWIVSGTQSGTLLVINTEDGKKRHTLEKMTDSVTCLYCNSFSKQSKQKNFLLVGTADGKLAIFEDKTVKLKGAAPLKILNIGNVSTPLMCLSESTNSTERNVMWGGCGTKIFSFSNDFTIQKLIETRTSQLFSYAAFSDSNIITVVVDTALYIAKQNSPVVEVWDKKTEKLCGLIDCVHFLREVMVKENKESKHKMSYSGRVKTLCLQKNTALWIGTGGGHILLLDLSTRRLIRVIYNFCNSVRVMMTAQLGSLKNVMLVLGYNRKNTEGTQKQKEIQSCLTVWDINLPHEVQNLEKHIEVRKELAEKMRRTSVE
T1 sequence (Q5S007 970-2527 limits assumed): as the sequence (Q5S007 970-2527 G2019S limits assumed) above, with S1050G counted along it

Compound	IC50 (mutant G2019S LRRK2)	IC50 [1, 2]	IC50 [1, 3]	IC50 (mutant G2019S LRRK2; read-out: LRRK2, Format 1 G2019S IC50, Format 1, G2019S mutant LRRK2, geometric mean of 2-4 determinations unless footnoted (a: ≥5 determinations; b: single determination; c: determined on trifluoroacetate salt))
Cc1nc2cnc3ccc(Br)cc3c2n1[C@H]1CC[C@@H](F)C1 [Example 6, 8-Bromo-1-[(1S,3R)-3-fluorocyclopentyl]-2-methyl-1H-imidazo[4,5-c]quinoline]	168 nM	172 nM		
Cc1nn2cc(Cc3nc4cnc5ccccc5c4n3C3CCOCC3)nc2s1 [Example 38, 2-[(2-methylimidazo[2,1-b][1,3,4]thiadiazol-6-yl)methyl]-1-(tetrahydro-2H-pyran-4-yl)-1H-imidazo[4,5-c]quinoline]	41.6 nM	36 nM		
Cc1nc2cnc3ccc(C#N)cc3c2n1[C@H]1CC[C@@H](F)C1 [Example 20, 1-[(1S,3R)-3-fluorocyclopentyl]-2-methyl-1H-imidazo[4,5-c]quinoline-8-carbonitrile]	174 nM	195 nM		
Cc1cn(Cc2nc3cnc4ccccc4c3n2C2CCOCC2)nn1 [Example 32, 2-[(4-methyl-1H-1,2,3-triazol-1-yl)methyl]-1-(tetrahydro-2H-pyran-4-yl)-1H-imidazo[4,5-c]quinoline]	121 nM	98.6 nM		
C[C@H]1C[C@@H](n2c(Cc3ccon3)nc3cnc4ccc(Br)cc4c32)CCO1 (single isomer, unassigned) [enantiomer of Example 12]	226 nM		510 nM	
c1ccc2c(c1)ncc1nc(Cn3cc(C4CC4)nn3)n(C3CCOCC3)c12 [Example 42, 2-[(4-cyclopropyl-1H-1,2,3-triazol-1-yl)methyl]-1-(tetrahydro-2H-pyran-4-yl)-1H-imidazo[4,5-c]quinoline]	55.9 nM	51.2 nM		
Cc1nc2cnc3ccccc3c2n1[C@H]1CCO[C@@H](CC#N)C1 (racemic) [Example 91, [cis-4-(2-methyl-1H-imidazo[4,5-c]quinolin-1-yl)tetrahydro-2H-pyran-2-yl]acetonitrile]	12.2 nM	18.7 nM		
FC1(F)CCCCC1n1c(Cc2ccon2)nc2cnc3ccccc3c21 (stereo not drawn) [Example 46, 1-(2,2-difluorocyclohexyl)-2-(1,2-oxazol-3-ylmethyl)-1H-imidazo[4,5-c]quinoline]	90.8 nM	186 nM		
C[C@H]1C[C@@H](n2c(Cc3ccon3)nc3cnc4ccc(C#N)cc4c32)CCO1 (racemic) [Example 21, 1-(cis-2-methyltetrahydro-2H-pyran-4-yl)-2-(1,2-oxazol-3-ylmethyl)-1H-imidazo[4,5-c]quinoline-8-carbonitrile]	4.5 nM	7.5 nM		
COc1ccc2ncc3nc(Cn4cc(C)nn4)n([C@H]4CCO[C@@H](C)C4)c3c2c1 [enantiomer of Example 88, 8-methoxy-1-[(2S,4S)-2-methyltetrahydro-2H-pyran-4-yl]-2-[(4-methyl-1H-1,2,3-triazol-1-yl)methyl]-1H-imidazo[4,5-c]quinoline]	372 nM		1050 nM	
COc1ccc2ncc3nc(Cn4cc(C)nn4)n([C@@H]4CCO[C@H](C)C4)c3c2c1 [Example 88, 8-methoxy-1-[(2R,4R)-2-methyltetrahydro-2H-pyran-4-yl]-2-[(4-methyl-1H-1,2,3-triazol-1-yl)methyl]-1H-imidazo[4,5-c]quinoline]	7.5 nM	18 nM		
C[C@@H]1C[C@H](n2c(Cc3ccon3)nc3cnc4ccc(Br)cc4c32)C[C@H](C)O1 [Example 59, 8-bromo-1-[(2R,4r,6S)-2,6-dimethyltetrahydro-2H-pyran-4-yl]-2-(1,2-oxazol-3-ylmethyl)-1H-imidazo[4,5-c]quinoline]	52 nM	176 nM		
C[C@H]1C[C@@H](n2c(Cc3ccon3)nc3cnc4ccc(C#N)cc4c32)CCO1 [enantiomer of Example 22, 1-[(2 S,4S)-2-methyltetrahydro-2H-pyran-4-yl]-2-(1,2-oxazol-3-ylmethyl)-1H-imidazo[4,5-c]quinoline-8-carbonitrile]	258 nM		534 nM	
COc1ccc2ncc3nc(Cc4cc(C)on4)n([C@H]4CCO[C@@H](C)C4)c3c2c1 (single isomer, unassigned) [Example C12]	478 nM	1260 nM		
C[C@@H]1C[C@H](n2c(Cc3cscn3)nc3cnc4ccc(Br)cc4c32)C[C@H](C)O1 [Example 60]	11.5 nM	35.1 nM		
COc1ccc(Cc2nc3cnc4ccc(Cl)cc4c3n2[C@@H]2CCO[C@H](C)C2)nc1 [Example 2, 8-Chloro-2-[(5-methoxypyridin-2-yl)methyl]-1-[(2R,4R)-2-methyltetrahydro-2H-pyran-4-yl]-1H-imidazo[4,5-c]quinoline]	5.6 nM	6.8 nM		
c1ccc2c(c1)ncc1nc(Cc3ccon3)n(C3CCCCC3)c12 [Example 50, 1-cyclohexyl-2-(1,2-oxazol-3-ylmethyl)-1H-imidazo[4,5-c]quinoline]	57.7 nM	127 nM		
C[C@@H]1C[C@H](n2c(Cc3ccon3)nc3cnc4ccc(F)cc4c32)CCO1 [Example 54, 8-fluoro-1-[(2R,4R)-2-methyltetrahydro-2H-pyran-4-yl]-2-(1,2-oxazol-3-ylmethyl)-1H-imidazo[4,5-c]quinoline]	8 nM	8.8 nM		
C[C@@H]1C[C@H](n2c(Cc3ccon3)nc3cnc4ccc(C#N)cc4c32)CCO1 [Example 22, 1-[(2R,4R)-2-methyltetrahydro-2H-pyran-4-yl]-2-(1,2-oxazol-3-ylmethyl)-1H-imidazo[4,5-c]quinoline-8-carbonitrile]	3.9 nM	5.2 nM		
Cc1cc(Cc2nc3cnc4ccc(Cl)cc4c3n2C2CCOC(CC#N)C2)no1 (single isomer, unassigned; ent-2) [enantiomer of Example 134, [cis-4-{8-chloro-2-[(5-methyl-1,2-oxazol-3-yl)methyl]-1H-imidazo[4,5-c]quinolin-1-yl}tetrahydro-2H-pyran-2-yl]acetonitrile, ENT-2]	327 nM		353 nM	
CC1(C)CC(n2c(Cc3ccon3)nc3cnc4ccc(F)cc4c32)CCO1 (stereo not drawn) [Example 84, 1-(2,2-dimethyltetrahydro-2H-pyran-4-yl)-8-fluoro-2-(1,2-oxazol-3-ylmethyl)-1H-imidazo[4,5-c]quinoline, trifluoroacetate salt]	24.9 nM	31.4 nM		
CC[C@@H]1C[C@H](n2c(Cc3ccon3)nc3cnc4ccc(C#N)cc4c32)CCO1 [Example 67, 1-[(2R,4R)-2-ethyltetrahydro-2H-pyran-4-yl]-2-(1,2-oxazol-3-ylmethyl)-1H-imidazo[4,5-c]quinoline-8-carbonitrile]	4 nM	5.8 nM		
C[C@@H]1C[C@H](n2c(Cn3cncn3)nc3cnc4ccc(Cl)cc4c32)CCO1 (single isomer, unassigned) [Example 65]	1.8 nM	2.8 nM		
C[C@@H]1C[C@H](n2c(Cc3cscn3)nc3cnc4ccc(Cl)cc4c32)CCO1 [Example 53, 8-chloro-1-[(2R,4R)-2-methyltetrahydro-2H-pyran-4-yl]-2-(1,3-thiazol-4-ylmethyl)-1H-imidazo[4,5-c]quinoline]	1.9 nM	3.1 nM		
CC(C)c1cn(Cc2nc3cnc4ccccc4c3n2C2CCOCC2)nn1 [Example 44, 2-{[4-(propan-2-yl)-1H-1,2,3-triazol-1-yl]methyl}-1-(tetrahydro-2H-pyran-4-yl)-1H-imidazo[4,5-c]quinoline]	72.2 nM	62.5 nM		
F[C@H]1CC[C@@H](n2c(Cc3ccon3)nc3cnc4ccccc4c32)C1 [Example 16, 1-[(1R,3S)-3-fluorocyclopentyl]-2-(1,2-oxazol-3-ylmethyl)-1H-imidazo[4,5-c]quinoline]	184 nM	158 nM		
Fc1ccc2ncc3nc(Cc4cscn4)n(C4CCOCC4)c3c2c1 [Example 77, 8-fluoro-1-(tetrahydro-2H-pyran-4-yl)-2-(1,3-thiazol-4-ylmethyl)-1H-imidazo[4,5-c]quinoline, trifluoroacetate salt]	62.5 nM	74.6 nM		
COc1ccc2ncc3nc(Cc4noc(C)n4)n([C@@H]4CCO[C@H](C)C4)c3c2c1 [Example 87, 8-methoxy-2-[(5-methyl-1,2,4-oxadiazol-3-yl)methyl]-1-[(2R,4R)-2-methyltetrahydro-2H-pyran-4-yl]-1H-imidazo[4,5-c]quinoline]	38.8 nM	111 nM		
C[C@@H]1C[C@H](n2c(Cc3cscn3)nc3cnc4ccc(Cl)cc4c32)CCO1 [Example 10, 8-Chloro-1-[(2R,4R)-2-methyltetrahydro-2H-pyran-4-yl]-2-(1,3-thiazol-4-ylmethyl)(4-^2H)-1H-imidazo[4,5-c]quinoline]		5 nM		3 nM
Fc1ccc2ncc3nc(Cn4cc(C(F)(F)F)nn4)n(C4CCOCC4)c3c2c1 [Example 74, 8-fluoro-1-(tetrahydro-2H-pyran-4-yl)-2-{[4-(trifluoromethyl)-1H-1,2,3-triazol-1-yl]methyl}-1H-imidazo[4,5-c]quinoline, trifluoroacetate salt]	102 nM	112 nM		
